From paper PMC5459446, “A phase I study of single-agent perifosine for recurrent or refractory pediatric CNS and solid tumors” (PLoS ONE, 2017)
Where a name gives a salt, the structure may show the parent alone.

Key:
[1] = system: recurrent or refractory pediatric CNS and solid tumors; experiment: Tumor response assessment (RECIST; INRC for neuroblastoma); assay type: in vivo, human; parameters: key to Best Response: no response per INRC; PD: progressive disease per RECIST or INRC; SD: stable disease per RECIST; details: for Subjects with stable disease as best response: stable disease for 2 months
Experimental: Tumor assessments were performed approximately every 8 weeks. For subjects with tumors other than neuroblastoma, responses were assessed by the study radiologist and principal investigator (SH, ID) via the Response Evaluation Criteria in Solid Tumors (RECIST). For subjects with neuroblastoma, responses were assessed by a single investigator (BK) using the International Neuroblastoma Response Criteria (INRC).

[2] = system: Rhabdomyosarcoma cell lines; parameters: method as in PMID 19887560, PMID 26269112; details: cited from earlier work
[3] = system: mTOR pathway / autophagy; parameters: method as in PMID 19920197; details: doses as low as; cited from earlier work
[4] = system: mouse brainstem glioma model; parameters: method as in PMID 25712742; details: doses demonstrated to be effective in cell culture; cited from earlier work
[5] = cited from earlier work

CCCCCCCCCCCCCCCCCCOP(=O)([O-])OC1CC[N+](C)(C)CC1 [perifosine, 1,1-Dimethyl-4-[[(octadecyloxy)hydroxyphosphinyl]oxy]-piperidinium inner salt]
Objective responses ([1]; 23 patients, all dose levels): No objective responses | Best Response ([1]; Patient 1, dose level 1, medulloblastoma): PD | Best Response ([1]; Patient 2, dose level 1, medulloblastoma): PD | Best Response ([1]; Patient 3, dose level 1, neuroblastoma): NR | Duration of Best Response ([1]; Patient 3, dose level 1, neuroblastoma, NR): 11 months | Best Response ([1]; Patient 4, dose level 2, glioblastoma): PD | Best Response ([1]; Patient 5, dose level 2, neuroblastoma): NR | Duration of Best Response ([1]; Patient 5, dose level 2, neuroblastoma, NR): 63 months | Best Response ([1]; Patient 6, dose level 2, anaplastic astrocytoma): SD | Duration of Best Response ([1]; Patient 6, dose level 2, anaplastic astrocytoma, SD): 2 months | Best Response ([1]; Patient 7, dose level 3, glioblastoma): SD | Duration of Best Response ([1]; Patient 7, dose level 3, glioblastoma, SD): 2 months | Best Response ([1]; Patient 8, dose level 3, anaplastic astrocytoma): SD | Duration of Best Response ([1]; Patient 8, dose level 3, anaplastic astrocytoma, SD): 2 months | Best Response ([1]; Patient 9, dose level 3, anaplastic astrocytoma): SD | Duration of Best Response ([1]; Patient 9, dose level 3, anaplastic astrocytoma, SD): 2 months | Best Response ([1]; Patient 10, dose level 3, ependymoma): PD | Best Response ([1]; Patient 11, dose level 3, neuroblastoma): NR | Duration of Best Response ([1]; Patient 11, dose level 3, neuroblastoma, NR): 2 months | Best Response ([1]; Patient 12, dose level 4, neuroblastoma): PD | Best Response ([1]; Patient 13, dose level 4, Ewing sarcoma/PNET): PD | Best Response ([1]; Patient 14, dose level 4, neuroblastoma): NR | Duration of Best Response ([1]; Patient 14, dose level 4, neuroblastoma, NR): 4 months | Best Response ([1]; Patient 15, dose level 4, neuroblastoma): NR | Duration of Best Response ([1]; Patient 15, dose level 4, neuroblastoma, NR): 42 months | Best Response ([1]; Patient 16, dose level 4, neuroblastoma): PD | Best Response ([1]; Patient 17, dose level 4, DIPG): PD | Best Response ([1]; Patient 18, dose level 5, Wilms tumor): PD | Best Response ([1]; Patient 19, dose level 5, DIPG): PD | Best Response ([1]; Patient 20, dose level 5, DIPG): SD | Duration of Best Response ([1]; Patient 20, dose level 5, DIPG, SD): 2 months | Best Response ([1]; Patient 21, dose level 5, ependymoma): PD | Best Response ([1]; Patient 22, dose level 5, ependymoma): PD | Best Response ([1]; Patient 23, dose level 5, neuroblastoma): PD | Subjects with disease stability (no response per INRC) ([1]; neuroblastoma, for 2, 4, 11, 42 and 63 months): Five of 8 | Subjects with stable disease as best response ([1]; recurrent high-grade astrocytoma): 4 of 5 | Duration of prolonged stable disease ([1]; three subjects with neuroblastoma): ≥ 11 months | Subjects with stable disease as best response ([1]; three subjects with recurrent DIPG): 1 | IC50 [2]: ~10 µM | Lowest dose degrading mTOR pathway components and inducing autophagy [3]: 5 µM | Acute toxicity after convection enhanced delivery [4]: no serious acute toxicities | Dose at which dose exposure plateau was reached ([5]; 2 adult studies): higher than 100 mg/m^2/day | Plasma half-life [5]: approximately 4 days
